The text below walks through data of patent US8648092B2, “Imidazo[1,2-a]pyridine derivatives: preparation and pharmaceutical applications” (MEI Pharma, priority 2005, dated 2014).

Assay [1] deals with HDAC1 enzyme (recombinant GST-HDAC1) (Homo sapiens (Human), UniProt Q13547). The assay can be described thus: In vitro HDAC assay for determination of IC50 values (BIOMOL fluorescent-based HDAC activity assay). The conditions noted are these: Flur de lys substrate, 2 h room temperature, read-out: IC50 (HDAC 1). It counts as biochemical. An outline of the steps: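 Recombinant human GST-HDAC1, baculovirus-expressed in SF9 cells and glutathione-purified, tested with a fluorogenic deacetylase substrate; Fluor de Lys developer added for 10 min. Fluorescence at 360 nm excitation/460 nm emission; IC50 fitted from a concentration series.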
Sequence of HDAC1 enzyme (recombinant GST-HDAC1) (Q13547 whole entry): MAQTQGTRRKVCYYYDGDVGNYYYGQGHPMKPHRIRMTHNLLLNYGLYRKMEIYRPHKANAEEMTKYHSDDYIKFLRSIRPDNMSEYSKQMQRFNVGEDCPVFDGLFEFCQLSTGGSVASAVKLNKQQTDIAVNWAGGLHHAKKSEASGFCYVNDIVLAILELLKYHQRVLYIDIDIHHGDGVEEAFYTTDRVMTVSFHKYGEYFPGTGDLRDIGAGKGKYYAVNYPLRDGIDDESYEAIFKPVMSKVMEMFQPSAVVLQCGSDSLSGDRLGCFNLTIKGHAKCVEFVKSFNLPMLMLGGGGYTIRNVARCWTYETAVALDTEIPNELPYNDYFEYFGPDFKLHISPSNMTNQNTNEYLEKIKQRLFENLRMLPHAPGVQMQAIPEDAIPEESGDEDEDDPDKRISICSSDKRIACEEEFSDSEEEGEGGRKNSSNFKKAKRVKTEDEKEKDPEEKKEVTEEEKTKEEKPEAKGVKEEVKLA

Assay [2] deals with Colo205 cells. The assay can be described thus: Cell-based proliferation assay for determination of GI50 values (CyQUANT). Also on record: species or system human. The conditions noted are these: Homo sapiens, COLO 205, 96 h treatment. The procedure, abridged:
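Colo205 cells in RPMI 1640 with 5% FBS, seeded 5000/well and grown 24 h at 37 °C. Exposure to compound lasted 96 h, with growth read by CyQUANT. GI50 = concentration giving 50% growth inhibition, from dose-response curves.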

The test system of assay [3] is acetylated histone H3 in Colo205 cells. The assay can be described thus: Histone acetylation assay (immuno-blotting with acetylated histone H3 antibody). The format is cell-based, human. The conditions noted are these: 10 μM, 24 h, western blot. How it is done:
Histone Acetylation Assay
A hallmark of histone deacetylase (HDAC) inhibition is the increase in the acetylation level of histones. Histone acetylation, including H3, H4 and H2A can be detected by immuno-blotting (western-blot). Colo205 cells, approximately 5×10^5 cells, were seeded in the previously described medium, cultivated for 24 h and subsequently treated with HDAC inhibitory agents and a positive control at 10 μM final concentration. After 24 h, cells were harvested and lysed according to the instruction from Sigma Mammalian Cell Lysis Kit. The protein concentration was quantified using BCA method (Sigma Pte Ltd). The protein lysate was separated using 4-12% bis-tris SDS-PAGE gel (Invitrogen Pte Ltd) and was transferred onto PVDF membrane (BioRad Pte Ltd). The membrane was probed using primary antibody specific for acetylated histone H3 (Upstate Pte Ltd). The detection antibody, goat anti rabbit antibody conjugated with HRP was used according to the manufacturing instruction (Pierce Pte Ltd). After removing the detection antibody from the membrane, an enhanced chemiluminescent substrate for detection of HRP (Pierce Pte Ltd) was added onto the membrane. After removing the substrate, the membrane was exposed to an X-ray film (Kodak) for 1 sec-20 mins. The X-ray film was developed using the X-ray film processor. The density of each band observed on the developed film could be qualitatively analysed using UVP Bioimaging software (UVP, Inc, Upland, Calif.). The values were then normalized against the density of actin in the corresponding samples to obtain the expression of the protein.
The results of immuno-blotting assay using acetylated histone H3 antibody are shown in Table 5 for representative compounds of this invention.
(Immunoblotting shows a protein as a band on a membrane.)

On to `CCCN(C)Cc1c(-c2ccccc2)nc2cc(C=CC(=O)NO)ccn12` [Compound 40, N-Hydroxy-3-{3-[(methyl-propyl-amino)-methyl]-2-phenyl-imidazo[1,2-a]pyridin-7-yl}-acrylamide], for which the IC50 in assay [1] came to 240 nM. The GI50 in assay [2] was 790 nM. Moreover, the “Histone acetylation activities (Histone-3)” value in assay [3] was “active”.

On to `CCCCNCc1c(-c2ccc(F)cc2)nc2cc(/C=C/C(=O)NO)ccn12` [Compound 63, 3-[3-Butylaminomethyl-2-(4-fluoro-phenyl)-imidazo[1,2-a]pyridin-7-yl]-N-hydroxy-acrylamide], for which, in assay [1], the IC50 stood at 63 nM. Also, in assay [2], the 50% growth inhibitory concentration (GI50) came to 540 nM. In addition, in assay [3], the “Histone acetylation activities (Histone-3)” value is on record as “active”.

For `CCCCNCc1c(C(C)(C)C)nc2cc(/C=C/C(=O)NO)ccn12` [Compound 49, 3-(2-tert-Butyl-3-butylaminomethyl-imidazo[1,2-a]pyridin-7-yl)-N-hydroxy-acrylamide], the IC50 in assay [1] stood at 160 nM. In assay [2], this compound gave a GI50 of 590 nM. In addition, the “Histone acetylation activities (Histone-3)” value in assay [3] is recorded as “active”.

On to `CC(C)(C)NCc1c(-c2ccccc2)nc2cc(/C=C/C(=O)NO)ccn12` [Compound 45, 3-[3-(tert-Butylamino-methyl)-2-phenyl-imidazo[1,2-a]pyridin-7-yl]-N-hydroxy-acrylamide], for which the IC50 in assay [1] was determined as 45 nM. For the same compound, the GI50 in assay [2] was 260 nM. Besides, the “Histone acetylation activities (Histone-3)” value in assay [3] is given as “active”.

Regarding `CC(C)(C)NCc1c(-c2ccc(F)cc2)nc2cc(/C=C/C(=O)NO)ccn12` [Compound 64, 3-[3-(tert-Butylamino-methyl)-2-(4-fluoro-phenyl)-imidazo[1,2-a]pyridin-7-yl]-N-hydroxy-acrylamide], the IC50 in assay [1] turned out to be 51 nM. In assay [2], this compound gave a GI50 of 270 nM. Moreover, in assay [3], the “Histone acetylation activities (Histone-3)” value is on record as “active”.

In the case of `O=C(/C=C/c1ccn2c(CN3CCCC3)c(-c3ccccc3)nc2c1)NO` [Compound 60, N-Hydroxy-3-(2-phenyl-3-pyrrolidin-1-ylmethyl-imidazo[1,2-a]pyridin-7-yl)-acrylamide], the half-maximal inhibitory concentration (IC50) in assay [1] is 84 nM. This compound displayed a GI50 in assay [2] of 480 nM. Besides, the “Histone acetylation activities (Histone-3)” value in assay [3] is on record as “active”.

As for `CCCCNCc1c(-c2ccccc2)nc2cc(/C=C/C(=O)NO)ccn12` [Compound 39, 3-(3-Butylaminomethyl-2-phenyl-imidazo[1,2-a]pyridin-7-yl)-N-hydroxy-acrylamide], the IC50 in assay [1] is 160 nM. Besides, in assay [2], growth was halved (GI50) at 440 nM. The “Histone acetylation activities (Histone-3)” value in assay [3] is given as “active”.

A word on the IC50: it is the concentration that gives 50% inhibition. As usually defined, the GI50 is the concentration that inhibits growth by half.
